Source: article PMC6318807 (ACS chemical neuroscience, 2018)

Target: EP2 receptor (Homo sapiens, UniProt P43116)
Assay: TR-FRET cAMP
Type: cell-based

Chain of EP2 receptor (P43116 whole entry): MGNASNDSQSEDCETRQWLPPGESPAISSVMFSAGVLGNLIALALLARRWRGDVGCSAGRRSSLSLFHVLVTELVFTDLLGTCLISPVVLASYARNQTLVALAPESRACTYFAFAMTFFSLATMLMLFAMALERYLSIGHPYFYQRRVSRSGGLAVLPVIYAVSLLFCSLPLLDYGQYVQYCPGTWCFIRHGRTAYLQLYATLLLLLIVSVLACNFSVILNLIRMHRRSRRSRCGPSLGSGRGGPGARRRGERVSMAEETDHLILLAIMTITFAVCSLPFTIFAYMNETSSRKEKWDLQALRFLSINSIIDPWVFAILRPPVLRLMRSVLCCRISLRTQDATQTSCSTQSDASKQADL

| Structure (SMILES) | TR-FRET cAMP; fold leftward shift of PGE2 EC50 at 20 μM compound |
| --- | --- |
| CC(C)Sc1cc(N2CCOCC2)nc(-c2ccc(Cl)cc2)n1 [CID852308] | 2.4 fold shift of PGE2 EC50 at 20 μM |
| CC(C)Sc1cc(N2CCOCC2)nc(-c2ccccc2)n1 [CID852313] | 2.4 fold shift of PGE2 EC50 at 20 μM |
| O=C(Nc1ccccc1N1CCCCC1)c1ccc(F)cc1 [CID890517, 4-fluoro-N-(2-piperidin-1-ylphenyl)benzamide] | 4.3 fold shift of PGE2 EC50 at 20 μM |
| FC(F)(F)c1cc(-c2ccccc2)nc(N2CCOCC2)n1 [CID891729, 4-[4-phenyl-6-(trifluoromethyl)pyrimidin-2-yl]morpholine] | 2.4 fold shift of PGE2 EC50 at 20 μM |
| CC1CCN(c2ccccc2NC(=O)c2ccc(F)cc2)CC1 [CID953673, 4-fluoro-N-(2-(4-methylpiperidin-1-yl)phenyl)benzamide] | 2.5 fold shift of PGE2 EC50 at 20 μM |
| O=C(Nc1cccc(Cl)c1N1CCCCC1)c1ccc2c(c1)OCCO2 [CID1254488] | 2.5 fold shift of PGE2 EC50 at 20 μM |
| Cc1ccccc1C(=O)Nc1ccccc1N1CCCCC1 [CID2340325, 2-methyl-N-(2-piperidin-1-ylphenyl)benzamide] | 3.3 fold shift of PGE2 EC50 at 20 μM |
| COc1ccc(-c2cc(C(F)(F)F)nc(N3CCOCC3)n2)cc1OC [CID2992168, 4-[4-(3,4-dimethoxyphenyl)-6 (trifluoromethyl)pyrimidin-2-yl]morpholine] | 2.7 fold shift of PGE2 EC50 at 20 μM |
